In patent US8846698B2, “Pyrrolo[2,3-d]pyrimidine tropomysin-related kinase inhibitors” (Pfizer Limited, priority 2011, dated 2014):
Like-named read-outs stand apart in the source and are kept apart here.

Legend:
MDR1 = MDR1 (Homo sapiens (Human), UniProt P08183); assay: MDCK-MDR1 assay (in vitro brain penetration); assay type: in vitro ADME; settings: human; for Papp A→B: MDCK-MDR1, A to B, read-out: MDCK MDR1 Papp AB; for Papp B→A: read-out: MDCK MDR1 Papp BA
Source text: MDCK-MDR1: MDCK-MDR1 data were collected according to the method described in “Are MDCK Cells Transfected with the Human MDR1 Gene a Good Model of the Human Intestinal Mucosa?”
http://www.springerlink.com/content/qfhqlqbr4fnp3 khf/fulltext.pdf

TRKA [1] = biological target: T1, TRKA (Homo sapiens (Human), UniProt P04629); assay: Isolated TRK enzyme assay (HTRF KinEASE-TK), TRKA; assay type: biochemical; settings: isolated TRKA enzyme; read-out: TrkA enzyme potency
Target sequence in this assay (P04629 441-796): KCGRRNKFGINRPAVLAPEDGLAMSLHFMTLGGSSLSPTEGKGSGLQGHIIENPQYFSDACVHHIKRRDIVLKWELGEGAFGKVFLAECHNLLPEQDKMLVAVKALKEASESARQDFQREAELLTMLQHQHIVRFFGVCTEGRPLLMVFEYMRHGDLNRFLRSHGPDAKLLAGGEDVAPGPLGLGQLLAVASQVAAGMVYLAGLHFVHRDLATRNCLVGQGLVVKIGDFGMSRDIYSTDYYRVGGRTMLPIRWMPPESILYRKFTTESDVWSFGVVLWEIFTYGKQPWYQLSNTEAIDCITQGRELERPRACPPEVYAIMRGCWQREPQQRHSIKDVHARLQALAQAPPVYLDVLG

TRKA [2] = biological target: T1, TRKA; assay: Cell based DiscoveRx PathHunter antagonist assay, TRKA cell line; settings: read-out: TrkA cell potency
Procedure: (§1) After the Detection Reagent addition, plates are covered and incubated at room temperature for 60 minutes. […] Test compound data are expressed as percentage inhibition defined by HPE and ZPE values for each plate. Percentage inhibition in the presence of test compound is plotted against compound concentration on a log scale to determine an IC50 from the resultant sigmoid curve. Cell Based Assays were carried out using Cell lines from DiscoveRx utilising their PathHunter technology and reagents in an antagonist assay:
(§2) The assays are based upon DiscoveRx's proprietary Enzyme Fragment Complementation (EFC) technology. In the case of the TRK cell lines, the enzyme acceptor (EA) protein is fused to a SH2 protein and the TRK receptor of interest has been tagged with a Prolink tag.
(§3) Upon neurotrophin binding, the TRK receptor becomes phosphorylated, and the tagged SH2 protein binds.
(§4) This means that the IC50 is a good measure of affinity and should be unaffected by concentration neurotrophin stimulant.
(§5) Cryopreserved PathHunter cells are used from either in-house produced batches or bulk batches bought directly from DiscoveRx. Cryopreserved cells are resuscitated, spun 1000 rpm for 4 min to remove freezing media, and resuspended in MEM+0.5% horse serum (both Invitrogen) to 5e^5 cells/ml. The cells are then plated using a Multidrop into Greiner white tissue culture treated plates at 20 ul/well and incubated for 24 h at 37° C., 5% CO2, high humidity. On the day of the assay, the cell plates are allowed to cool to room temperature for 30 min prior to the assay.
(§6) Plates containing 1 ul of serially diluted compound, standard and HPE/ZPE are diluted 1/66 in assay buffer (PBS minus Ca^2+, minus Mg^2+ with 0.05% pluronic F127) using a Wellmate. […] The plates are left at room temperature for a further 2 hours before addition of 10 ul of the DiscoveRx PathHunter detection reagent (made up by adding 1 part Galacton Star, 5 parts Emerald II and 19 parts Cell Assay Buffer as per the manufacturer's instructions).
(§7) After reagent addition, plates are covered and incubated at room temperature for 60 minutes. Luminescence signal is read using an Envision. Test compound data are expressed as percentage inhibition defined by HPE and ZPE values for each plate. Percentage inhibition in the presence of test compound is plotted against compound concentration on a log scale to determine an […] from the resultant sigmoid curve.
Target sequence in this assay (P04629 33-796): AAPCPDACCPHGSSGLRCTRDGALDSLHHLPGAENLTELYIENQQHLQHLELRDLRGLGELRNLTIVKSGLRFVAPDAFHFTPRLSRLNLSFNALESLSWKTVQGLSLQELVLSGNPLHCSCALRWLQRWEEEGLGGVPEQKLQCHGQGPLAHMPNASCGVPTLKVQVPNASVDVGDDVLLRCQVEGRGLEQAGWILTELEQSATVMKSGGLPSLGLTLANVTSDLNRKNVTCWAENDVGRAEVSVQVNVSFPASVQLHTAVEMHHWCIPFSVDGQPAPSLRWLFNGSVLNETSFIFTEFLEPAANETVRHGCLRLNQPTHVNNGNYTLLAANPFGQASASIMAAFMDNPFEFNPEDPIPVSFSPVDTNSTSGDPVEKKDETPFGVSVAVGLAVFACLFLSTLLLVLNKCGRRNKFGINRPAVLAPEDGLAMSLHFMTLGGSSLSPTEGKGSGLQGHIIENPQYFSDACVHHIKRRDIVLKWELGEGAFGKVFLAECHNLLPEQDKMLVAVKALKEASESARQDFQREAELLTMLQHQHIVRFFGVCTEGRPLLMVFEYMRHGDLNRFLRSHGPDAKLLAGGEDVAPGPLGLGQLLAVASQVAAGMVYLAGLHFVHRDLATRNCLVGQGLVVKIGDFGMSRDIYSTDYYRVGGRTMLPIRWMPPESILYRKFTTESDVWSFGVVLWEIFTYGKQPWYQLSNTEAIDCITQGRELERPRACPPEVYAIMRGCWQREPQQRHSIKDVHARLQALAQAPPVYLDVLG

TRKB [3] = biological target: T2, TRKB (Homo sapiens (Human), UniProt Q16620); assay: cell-based; settings: TrkB cell potency, TRKB PathHunter cell line
T2 sequence (Q16620 32-822 limits assumed): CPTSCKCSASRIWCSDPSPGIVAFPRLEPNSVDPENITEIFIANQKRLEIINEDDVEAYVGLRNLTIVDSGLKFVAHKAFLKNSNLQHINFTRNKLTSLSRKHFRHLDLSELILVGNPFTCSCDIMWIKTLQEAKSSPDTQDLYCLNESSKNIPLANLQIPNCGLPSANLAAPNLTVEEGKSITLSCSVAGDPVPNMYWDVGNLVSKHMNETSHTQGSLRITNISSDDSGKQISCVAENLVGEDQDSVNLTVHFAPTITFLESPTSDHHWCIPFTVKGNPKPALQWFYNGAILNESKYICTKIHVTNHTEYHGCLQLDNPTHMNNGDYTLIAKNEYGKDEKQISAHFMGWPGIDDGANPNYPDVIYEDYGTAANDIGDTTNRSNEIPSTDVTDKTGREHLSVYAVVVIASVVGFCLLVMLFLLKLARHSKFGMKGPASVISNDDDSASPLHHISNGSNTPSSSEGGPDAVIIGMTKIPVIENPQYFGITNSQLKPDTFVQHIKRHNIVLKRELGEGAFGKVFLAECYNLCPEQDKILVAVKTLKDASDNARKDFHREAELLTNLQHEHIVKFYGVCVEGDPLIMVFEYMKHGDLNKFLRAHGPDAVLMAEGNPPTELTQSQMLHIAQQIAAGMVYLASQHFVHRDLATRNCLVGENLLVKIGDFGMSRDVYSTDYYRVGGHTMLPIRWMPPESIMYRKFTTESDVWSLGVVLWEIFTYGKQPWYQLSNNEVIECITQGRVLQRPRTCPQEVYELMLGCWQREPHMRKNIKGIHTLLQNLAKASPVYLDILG
Procedure: as §1, §2, §3, §4, §5, §6, §7

TRKB [4] = biological target: T2, TRKB; assay: biochemical
[5] = isolated TRKB enzyme, read-out: TrkB enzyme potency

Chain of MDR1 (P08183 whole entry): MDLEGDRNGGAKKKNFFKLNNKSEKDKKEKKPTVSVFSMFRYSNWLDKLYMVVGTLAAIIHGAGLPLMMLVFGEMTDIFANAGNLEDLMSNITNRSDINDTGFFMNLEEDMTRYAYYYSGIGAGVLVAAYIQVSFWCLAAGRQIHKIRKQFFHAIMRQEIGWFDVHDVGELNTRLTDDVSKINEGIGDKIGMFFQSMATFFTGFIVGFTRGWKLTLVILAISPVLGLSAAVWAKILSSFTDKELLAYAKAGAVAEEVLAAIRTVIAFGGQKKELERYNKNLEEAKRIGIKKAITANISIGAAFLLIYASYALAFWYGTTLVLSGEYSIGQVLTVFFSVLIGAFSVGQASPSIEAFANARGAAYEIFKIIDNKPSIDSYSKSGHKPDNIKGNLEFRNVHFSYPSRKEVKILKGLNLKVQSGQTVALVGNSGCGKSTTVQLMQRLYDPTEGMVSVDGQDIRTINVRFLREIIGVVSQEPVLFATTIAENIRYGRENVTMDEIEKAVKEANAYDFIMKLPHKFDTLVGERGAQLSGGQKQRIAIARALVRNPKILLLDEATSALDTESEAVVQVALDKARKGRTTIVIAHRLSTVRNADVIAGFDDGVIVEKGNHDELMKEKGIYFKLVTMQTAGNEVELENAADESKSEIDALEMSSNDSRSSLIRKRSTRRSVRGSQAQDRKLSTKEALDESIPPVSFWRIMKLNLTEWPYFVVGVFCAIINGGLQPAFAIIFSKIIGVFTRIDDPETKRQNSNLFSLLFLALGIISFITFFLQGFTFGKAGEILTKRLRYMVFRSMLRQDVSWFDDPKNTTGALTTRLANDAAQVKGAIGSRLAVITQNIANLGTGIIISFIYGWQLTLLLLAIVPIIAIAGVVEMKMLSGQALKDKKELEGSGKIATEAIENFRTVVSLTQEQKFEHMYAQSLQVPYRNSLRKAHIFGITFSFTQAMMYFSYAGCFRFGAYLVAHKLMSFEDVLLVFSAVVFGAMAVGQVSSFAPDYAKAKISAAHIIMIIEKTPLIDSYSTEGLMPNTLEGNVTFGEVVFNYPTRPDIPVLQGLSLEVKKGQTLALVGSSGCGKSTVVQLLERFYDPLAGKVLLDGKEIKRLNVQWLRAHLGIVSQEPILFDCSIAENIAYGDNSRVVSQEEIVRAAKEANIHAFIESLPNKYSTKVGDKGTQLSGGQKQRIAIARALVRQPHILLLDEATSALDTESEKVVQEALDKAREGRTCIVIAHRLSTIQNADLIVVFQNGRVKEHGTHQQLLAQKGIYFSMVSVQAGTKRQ

SMILES | Papp A→B (MDR1) | Papp B→A (MDR1; MDCK-MDR1, B to A) | IC50 (TRKA [1]) | IC50 (TRKA [2]) | IC50 (TRKB [3]) | IC50 (TRKB [4]; TrkB enzyme potency) | Papp B→A (MDR1; MDCK-MDR1, MDCK-MDR1, B to A) | IC50 (TRKB [4]; [5])
C[C@H](CO)n1cc(C(=O)c2cncc(NC(=O)Cc3ccc(F)cn3)c2)c2cncnc21 [Example 19, 2-(5-fluoropyridin-2-yl)-N-[5-({7-[(1R)-2-hydroxy-1-methylethyl]-7H-pyrrolo[2,3-d]pyrimidin-5-yl}carbonyl)pyridin-3-yl]acetamide] | < 10 nm/s | 85 nm/s | 0.249 µM | 1.84 µM | 0.206 µM | 5.48 µM |  | 
C[C@@H](CO)n1cc(C(=O)c2cncc(NC(=O)Cn3nc4ccccc4n3)c2)c2cncnc21 [Example 15, 2-(2H-benzotriazol-2-yl)-N-[5-({7-[(1S)-2-hydroxy-1-methylethyl]-7H-pyrrolo[2,3-d]pyrimidin-5-yl}carbonyl)pyridin-3-yl]acetamide] | < 10 nm/s | 150 nm/s | 0.017 µM | 0.143 µM | 0.04 µM | 0.514 µM |  | 
C[C@@H](CO)n1cc(C(=O)c2cncc(NC(=O)Cn3ccc(C(F)(F)F)n3)c2)c2cncnc21 [Example 12, N-[5-({7-[(1S)-2-hydroxy-1-methylethyl]-7H-pyrrolo[2,3-d]pyrimidin-5-yl}carbonyl)pyridin-3-yl]-2-[3-(trifluoromethyl)-1H-pyrazol-1-yl]acetamide] | < 10 nm/s |  | 0.0092 µM | 0.068 µM | 0.022 µM |  | 31 nm/s | 0.547 µM
CC(C)(C)n1cc(C(=O)c2cncc(NC(=O)Cn3cc(C4CC4)cn3)c2)c2cncnc21 [Example 7, N-{5-[(7-tert-butyl-7H-pyrrolo[2,3-d]pyrimidin-5-yl)carbonyl]pyridin-3-yl}-2-(4-cyclopropyl-1H-pyrazol-1-yl)acetamide] | 56 nm/s |  | 0.011 µM | 0.0021 µM | 0.0008 µM |  | 200 nm/s | 0.041 µM
CC(C)(CO)n1cc(C(=O)c2cncc(NC(=O)Cc3ccc(Cl)cn3)c2)c2cncnc21 [Example 29, 2-(5-chloropyridin-2-yl)-N-(5-{[7-(2-hydroxy-1,1-dimethylethyl)-7H-pyrrolo[2,3-d]pyrimidin-5-yl]carbonyl}pyridin-3-yl)acetamide] | 13 nm/s | 230 nm/s | 0.0028 µM | 0.0058 µM | 0.004 µM | 0.068 µM |  | 
Cc1cc(C(F)(F)F)nn1CC(=O)Nc1cncc(C(=O)c2cn(C(C)(C)CO)c3nc(N)ncc23)c1 [Example 47, N-(5-{[2-Amino-7-(2-hydroxy-1,1-dimethylethyl)-7H-pyrrolo[2,3-d]pyrimidin-5-yl]carbonyl}pyridin-3-yl)-2-[5-methyl-3-(trifluoromethyl)-1H-pyrazol-1-yl]acetamide] | < 10 nm/s |  | 0.025 µM | 0.035 µM | 0.013 µM |  | 210 nm/s | 0.027 µM
CC(CO)n1cc(C(=O)c2cncc(NC(=O)Cc3ccc(Cl)cn3)c2)c2cnc(N)nc21 (single isomer, unassigned) [Example 35, N-(5-{[2-amino-7-(2-hydroxy-1-methylethyl)-7H-pyrrolo[2,3-d]pyrimidin-5-yl]carbonyl}pyridin-3-yl)-2-(5-chloropyridin-2-yl)acetamide] | < 10 nm/s |  | 0.0089 µM | 0.103 µM | 0.037 µM |  | 53 nm/s | 0.223 µM
CC(C)(C)n1cc(C(=O)c2cncc(NC(=O)Cc3ccc(Cl)cn3)c2)c2cncnc21 [Example 6, N-{5-[(7-tert-butyl-7H-pyrrolo[2,3-d]pyrimidin-5-yl)carbonyl]pyridin-3-yl}-2-(5-chloropyridin-2-yl)acetamide] | 69 nm/s |  | 0.0025 µM | 0.002 µM | 0.0013 µM |  | 160 nm/s | 
CC(C)(C)n1cc(C(=O)c2cncc(NC(=O)Cc3ccc(F)cn3)c2)c2cncnc21 [Example 1, N-{5-[(7-tert-Butyl-7H-pyrrolo[2,3-d]pyrimidin-5-yl)carbonyl]pyridin-3-yl}-2-(5-fluoropyridin-2-yl)acetamide] | 55 nm/s |  | 0.0037 µM | 0.0095 µM | 0.0015 µM |  | 140 nm/s | 
